Measurements: ChEMBL document CHEMBL1201862, “PubChem BioAssay data set” (2004)
Where a name gives a salt, the structure may show the parent alone. Calls of active or inactive are those of the source.

Tests used:
Vero = experiment: cells; format: functional; conditions: Chlorocebus sabaeus
[1] = molecular target: DNA dC->dU-editing enzyme APOBEC-3A (Homo sapiens, UniProt P31941); experiment: Dose Response confirmation of small molecule APOBEC3A DNA Deaminase Inhibitors via a fluorescence-based single-stranded DNA deaminase assay. [Related pubchem assays (depositor defined):AID493011, AID493024]; format: functional
DNA dC->dU-editing enzyme APOBEC-3A, sequence (P31941 whole entry): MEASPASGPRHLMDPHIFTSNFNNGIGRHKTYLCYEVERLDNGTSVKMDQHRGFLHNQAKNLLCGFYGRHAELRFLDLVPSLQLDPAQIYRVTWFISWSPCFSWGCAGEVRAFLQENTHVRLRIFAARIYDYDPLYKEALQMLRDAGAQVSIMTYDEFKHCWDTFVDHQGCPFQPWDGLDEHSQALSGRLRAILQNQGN

[2] = molecular target: DNA dC->dU-editing enzyme APOBEC-3G (Homo sapiens, UniProt Q9HC16); format: functional;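 note: Dose-response counterscreen measuring inhibition of APOBEC3G DNA deaminase activity, run while confirming APOBEC3A inhibitors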
DNA dC->dU-editing enzyme APOBEC-3G, sequence (Q9HC16 whole entry): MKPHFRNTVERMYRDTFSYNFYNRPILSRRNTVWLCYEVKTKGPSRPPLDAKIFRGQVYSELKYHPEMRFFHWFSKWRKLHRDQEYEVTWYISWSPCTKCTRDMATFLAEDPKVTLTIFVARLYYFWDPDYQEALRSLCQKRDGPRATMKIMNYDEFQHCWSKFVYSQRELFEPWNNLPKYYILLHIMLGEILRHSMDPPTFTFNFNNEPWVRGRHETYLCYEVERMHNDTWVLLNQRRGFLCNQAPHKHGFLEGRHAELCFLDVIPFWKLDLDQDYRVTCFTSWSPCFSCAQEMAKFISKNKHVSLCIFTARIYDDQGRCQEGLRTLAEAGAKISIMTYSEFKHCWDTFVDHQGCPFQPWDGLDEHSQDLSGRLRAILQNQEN

[3] = inhibitors of firefly luciferase expression or activity, dose response, H4 neuroglioma cells, luminescence (AID 1990); format: functional, cell-based
[4] = test system: Streptococcus sp. 'group A'; experiment: growth inhibition of control SK(-) GAS strain, dose response, counter-screen for streptokinase expression inhibitor project, luminescence, kanamycin, BacTiterGlo, confirmation (AID 1900); format: functional, organism-based
cells [5] = format: functional, cell-based
[6] = Luminescence Cell-Based Dose Response HTS to Identify Inhibitors of 5'UTR Stem-Loop Driven Prion Protein mRNA Translation in H4 Neuroglioblastoma Cells. [Related pubchem assays: 1827 (Project Summary), 1813 (Primary HTS)]; format: functional
[7] = molecular target: T1, Voltage-gated N-type calcium channel alpha-1B subunit/Amyloid beta A4 precursor protein-binding family A member 1 (Homo sapiens, UniProt Q00975+Q02410); format: protein assay
T1 sequence (Q00975 whole entry): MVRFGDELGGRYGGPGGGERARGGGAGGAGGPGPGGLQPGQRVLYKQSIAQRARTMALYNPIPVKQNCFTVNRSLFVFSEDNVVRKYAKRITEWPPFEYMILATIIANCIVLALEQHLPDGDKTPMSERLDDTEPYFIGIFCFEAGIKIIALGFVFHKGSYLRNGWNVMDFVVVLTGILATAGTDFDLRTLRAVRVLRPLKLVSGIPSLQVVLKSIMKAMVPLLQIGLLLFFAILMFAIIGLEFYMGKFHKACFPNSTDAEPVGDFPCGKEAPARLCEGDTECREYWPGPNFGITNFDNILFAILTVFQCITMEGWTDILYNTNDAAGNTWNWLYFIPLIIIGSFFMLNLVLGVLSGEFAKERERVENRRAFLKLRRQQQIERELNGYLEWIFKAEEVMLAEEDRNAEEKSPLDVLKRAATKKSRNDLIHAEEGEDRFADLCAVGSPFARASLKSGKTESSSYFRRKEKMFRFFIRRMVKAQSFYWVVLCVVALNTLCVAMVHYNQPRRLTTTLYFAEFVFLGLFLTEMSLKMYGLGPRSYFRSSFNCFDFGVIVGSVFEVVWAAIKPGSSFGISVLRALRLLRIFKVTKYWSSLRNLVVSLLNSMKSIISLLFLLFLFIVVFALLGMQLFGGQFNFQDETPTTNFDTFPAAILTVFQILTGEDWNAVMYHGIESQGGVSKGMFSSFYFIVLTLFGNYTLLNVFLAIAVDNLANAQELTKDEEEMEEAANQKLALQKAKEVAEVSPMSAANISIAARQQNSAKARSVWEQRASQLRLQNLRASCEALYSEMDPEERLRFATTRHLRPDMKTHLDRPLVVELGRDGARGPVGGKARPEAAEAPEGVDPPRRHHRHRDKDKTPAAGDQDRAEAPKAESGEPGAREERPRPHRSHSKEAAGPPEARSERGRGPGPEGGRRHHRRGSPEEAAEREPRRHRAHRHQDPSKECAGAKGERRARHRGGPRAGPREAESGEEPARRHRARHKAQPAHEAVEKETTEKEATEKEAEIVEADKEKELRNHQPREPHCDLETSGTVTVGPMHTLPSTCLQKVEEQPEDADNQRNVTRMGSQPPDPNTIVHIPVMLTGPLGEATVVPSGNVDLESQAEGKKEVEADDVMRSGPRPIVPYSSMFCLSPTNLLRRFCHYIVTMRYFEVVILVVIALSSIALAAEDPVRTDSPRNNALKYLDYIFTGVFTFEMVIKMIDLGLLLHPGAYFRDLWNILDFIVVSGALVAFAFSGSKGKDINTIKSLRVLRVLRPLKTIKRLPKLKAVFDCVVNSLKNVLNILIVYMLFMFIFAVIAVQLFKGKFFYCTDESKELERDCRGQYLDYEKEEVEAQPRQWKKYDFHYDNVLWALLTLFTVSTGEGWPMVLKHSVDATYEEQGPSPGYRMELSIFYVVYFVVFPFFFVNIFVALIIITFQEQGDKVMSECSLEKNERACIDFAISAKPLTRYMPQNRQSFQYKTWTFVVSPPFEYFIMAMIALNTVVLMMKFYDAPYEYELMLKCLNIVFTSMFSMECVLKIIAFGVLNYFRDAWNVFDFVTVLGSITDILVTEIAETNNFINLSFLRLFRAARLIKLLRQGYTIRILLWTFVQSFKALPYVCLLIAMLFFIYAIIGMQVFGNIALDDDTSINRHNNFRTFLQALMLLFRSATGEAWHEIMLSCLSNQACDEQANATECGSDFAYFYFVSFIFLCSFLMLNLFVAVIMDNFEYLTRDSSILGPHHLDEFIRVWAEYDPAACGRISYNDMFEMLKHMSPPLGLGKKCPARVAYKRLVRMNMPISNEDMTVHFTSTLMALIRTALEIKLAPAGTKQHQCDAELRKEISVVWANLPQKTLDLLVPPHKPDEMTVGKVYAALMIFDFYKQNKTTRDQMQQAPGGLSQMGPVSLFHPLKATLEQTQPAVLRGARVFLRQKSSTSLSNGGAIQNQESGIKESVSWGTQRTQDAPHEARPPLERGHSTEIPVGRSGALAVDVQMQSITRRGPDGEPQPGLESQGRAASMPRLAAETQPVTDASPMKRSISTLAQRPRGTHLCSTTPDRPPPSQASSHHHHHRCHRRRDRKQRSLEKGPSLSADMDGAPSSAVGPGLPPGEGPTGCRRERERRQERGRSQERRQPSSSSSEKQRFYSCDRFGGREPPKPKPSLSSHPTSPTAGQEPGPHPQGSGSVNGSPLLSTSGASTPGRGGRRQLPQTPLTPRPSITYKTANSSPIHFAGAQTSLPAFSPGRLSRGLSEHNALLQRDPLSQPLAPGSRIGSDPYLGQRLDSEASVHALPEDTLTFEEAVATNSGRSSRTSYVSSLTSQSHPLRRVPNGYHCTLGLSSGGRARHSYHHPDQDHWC
T1 sequence (Q02410 whole entry): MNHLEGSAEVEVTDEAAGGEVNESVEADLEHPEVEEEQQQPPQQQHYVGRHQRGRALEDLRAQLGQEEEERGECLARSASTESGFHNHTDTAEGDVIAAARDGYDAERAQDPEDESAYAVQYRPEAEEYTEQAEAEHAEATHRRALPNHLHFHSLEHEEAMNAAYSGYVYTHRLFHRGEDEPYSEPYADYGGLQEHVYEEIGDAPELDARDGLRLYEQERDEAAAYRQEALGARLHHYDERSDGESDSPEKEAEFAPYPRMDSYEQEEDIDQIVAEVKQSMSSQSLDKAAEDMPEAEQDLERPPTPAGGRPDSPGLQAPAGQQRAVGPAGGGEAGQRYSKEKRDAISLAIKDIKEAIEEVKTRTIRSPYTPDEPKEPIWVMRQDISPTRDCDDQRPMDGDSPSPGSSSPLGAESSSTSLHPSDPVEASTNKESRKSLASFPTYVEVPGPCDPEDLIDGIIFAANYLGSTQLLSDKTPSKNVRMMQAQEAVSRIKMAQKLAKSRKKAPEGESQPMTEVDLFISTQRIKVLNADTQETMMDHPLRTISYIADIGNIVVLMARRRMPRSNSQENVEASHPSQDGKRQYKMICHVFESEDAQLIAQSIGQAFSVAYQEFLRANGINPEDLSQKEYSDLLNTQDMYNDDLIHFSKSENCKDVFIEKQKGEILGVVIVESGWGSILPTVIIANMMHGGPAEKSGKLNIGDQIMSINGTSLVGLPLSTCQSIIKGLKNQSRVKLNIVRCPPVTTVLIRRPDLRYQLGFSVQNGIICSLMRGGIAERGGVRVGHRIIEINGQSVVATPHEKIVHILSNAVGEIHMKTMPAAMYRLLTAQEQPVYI

[8] = inhibitors of SNCA 5'UTR-driven reporter translation, confirmation, H4 neuroglioma cells, luminescence (AID 1988); format: functional, cell-based
[9] = molecular target: T1, Voltage-gated N-type calcium channel alpha-1B subunit/Amyloid beta A4 precursor protein-binding family A member 1; format: protein assay; remark: listed apart in the source
cells [10] = format: functional, cell-based; remark: listed apart in the source
[11] = molecular target: Induced myeloid leukemia cell differentiation protein Mcl-1 (Homo sapiens, UniProt Q07820); format: functional
Streptococcus = experiment: Group A Streptococcus viability loss, dose response, counter-screen for streptokinase expression inhibitor project, luminescence, BacTiterGlo (AID 1915); format: functional, organism-based;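 note: potency for reduction of bacterial viability or growth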
INS1 = experiment: beta cell apoptosis inhibitors, cytokine rescue, dose response, luminescence, retest (AID 449756); format: functional, cell-based; conditions: Rattus norvegicus;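 note: cell death triggered by IL-1 beta plus TNF-alpha plus IFN-gamma mixture; protective hits raise ATP signal compared with cytokine alone wells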
Cytochrome P450 2C19 = Cytochrome P450 2C19 (Homo sapiens, UniProt P33261); experiment: Cytochrome panel assay with activity outcomes. Panel member name: p450-cyp2c19 Compounds with AC50 equal or less than 10 uM are considered active; format: functional; conditions: read-out: AC50
Cytochrome P450 2C9 = Cytochrome P450 2C9 (Homo sapiens, UniProt P11712)
Cytochrome P450 2C9, sequence (P11712 whole entry): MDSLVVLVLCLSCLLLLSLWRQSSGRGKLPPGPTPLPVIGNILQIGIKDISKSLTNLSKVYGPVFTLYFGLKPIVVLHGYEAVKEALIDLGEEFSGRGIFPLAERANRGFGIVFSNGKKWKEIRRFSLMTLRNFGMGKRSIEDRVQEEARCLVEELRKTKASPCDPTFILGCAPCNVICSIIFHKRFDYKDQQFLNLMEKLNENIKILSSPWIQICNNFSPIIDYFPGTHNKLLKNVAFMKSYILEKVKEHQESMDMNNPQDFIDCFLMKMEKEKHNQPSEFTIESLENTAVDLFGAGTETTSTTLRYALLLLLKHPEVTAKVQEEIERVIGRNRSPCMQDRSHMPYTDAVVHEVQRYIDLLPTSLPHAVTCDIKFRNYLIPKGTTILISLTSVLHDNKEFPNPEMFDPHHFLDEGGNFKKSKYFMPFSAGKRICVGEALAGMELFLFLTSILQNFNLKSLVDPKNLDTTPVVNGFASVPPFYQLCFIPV

[12] = molecular target: T2, Calpain-2 catalytic subunit (Sus scrofa, UniProt P43367); experiment: pig calpain II inhibitor potency, dose response, biochemical, fluorogenic peptide substrate (AID 1420); format: functional
T2 sequence (P43367 whole entry): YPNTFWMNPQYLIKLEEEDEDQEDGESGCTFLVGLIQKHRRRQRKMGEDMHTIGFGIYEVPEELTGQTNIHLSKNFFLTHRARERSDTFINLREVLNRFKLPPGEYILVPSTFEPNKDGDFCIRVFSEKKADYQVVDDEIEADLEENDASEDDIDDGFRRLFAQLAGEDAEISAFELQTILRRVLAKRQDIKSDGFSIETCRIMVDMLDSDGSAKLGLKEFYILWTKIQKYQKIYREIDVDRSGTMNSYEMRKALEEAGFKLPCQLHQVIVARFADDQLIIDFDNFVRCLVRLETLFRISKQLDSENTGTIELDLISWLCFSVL

Escherichia coli = experiment: microbe, parasite or virus in culture
Genome polyprotein = Genome polyprotein (dengue virus type 2, UniProt P29990); experiment: Dengue-2 NS5 methyltransferase inhibitors, primary screen, biochemical, confirmation dose response (AID 588689); format: functional
[13] = molecular target: T3, Carboxy-terminal domain RNA polymerase II polypeptide A small phosphatase 1 (Homo sapiens, UniProt Q9GZU7); experiment: inhibitors of CTDSP1, concentration-response testing, biochemical assay, absorbance-based, actives from ultra-high-throughput screening (AID 540297); format: functional
T3 sequence (Q9GZU7 whole entry): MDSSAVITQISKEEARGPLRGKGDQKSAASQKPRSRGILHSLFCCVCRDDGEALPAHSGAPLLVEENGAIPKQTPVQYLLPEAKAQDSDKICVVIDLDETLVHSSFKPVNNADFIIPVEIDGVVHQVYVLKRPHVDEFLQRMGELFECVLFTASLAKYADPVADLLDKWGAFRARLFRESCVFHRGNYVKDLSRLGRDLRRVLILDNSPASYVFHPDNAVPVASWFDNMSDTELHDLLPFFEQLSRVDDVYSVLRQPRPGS

BJ [14] = experiment: cytotoxicity toward BJ-TERT fibroblasts, dose response, cell-based, RAS-independent, luminescence (AID 1933); format: functional; conditions: Homo sapiens
BJ [15] = experiment: cells; format: functional, cell-based; conditions: Homo sapiens
BJ [16] = experiment: cytotoxicity toward BJ-TERT-LT-ST fibroblasts, dose response, cell-based, RAS-independent, luminescence (AID 1935); format: functional; conditions: Homo sapiens;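 note: BJ fibroblasts immortalized with TERT plus LT and ST oncogenes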
[17] = cytotoxicity toward DRD oncogenic fibroblasts, dose response, cell-based, non-viral oncogenic, luminescence (AID 1934); format: functional; conditions: Homo sapiens
[18] = cytotoxicity in HEK-293T cells, dose response, cytotoxicity control for TCR NF-kB inhibitor project, luminescence, T-cell screen hits (AID 489026); format: functional, cell-based;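 note: cells exposed to compound about 14 hours before the viability readout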
[19] = inhibitors of intracellular T. cruzi replication, confirmation, NIH3T3 host cells, beta-gal luminescence (AID 2044); format: functional, cell-based;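 note: intracellular parasites grown in NIH/3T3 mouse fibroblasts as host cells; luminescent beta-galactosidase reporter signal from transgenic T. cruzi replicating inside host cells; inhibitors lower the luminescence signal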
[20] = cytotoxicity toward NIH3T3 fibroblasts, dose response, counter-screen, cell-based, ATP luminescence, mouse fibroblasts (AID 2010); format: functional;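 note: cells exposed to compound for about 90 hours before reading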
Cytochrome P450 2D6 = Cytochrome P450 2D6 (Homo sapiens, UniProt P10635);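 note: CYP2D6 member of a cytochrome P450 panel assay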
Cytochrome P450 2D6, sequence (P10635 whole entry): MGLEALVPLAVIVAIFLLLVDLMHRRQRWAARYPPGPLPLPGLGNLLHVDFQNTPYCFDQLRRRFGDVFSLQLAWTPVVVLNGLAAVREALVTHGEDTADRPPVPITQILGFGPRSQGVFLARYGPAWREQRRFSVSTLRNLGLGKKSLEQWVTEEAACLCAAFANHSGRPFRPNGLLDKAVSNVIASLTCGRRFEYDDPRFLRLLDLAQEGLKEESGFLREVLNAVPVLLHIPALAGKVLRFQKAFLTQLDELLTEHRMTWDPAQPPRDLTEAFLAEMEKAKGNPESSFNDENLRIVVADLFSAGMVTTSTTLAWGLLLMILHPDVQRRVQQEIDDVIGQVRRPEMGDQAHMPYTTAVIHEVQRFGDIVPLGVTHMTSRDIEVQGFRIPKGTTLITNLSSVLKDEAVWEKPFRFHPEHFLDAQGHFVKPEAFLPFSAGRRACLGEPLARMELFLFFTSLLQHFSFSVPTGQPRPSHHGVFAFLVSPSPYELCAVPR

Cytochrome P450 1A2 = molecular target: T4, Cytochrome P450 1A2 (Homo sapiens, UniProt P05177);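 note: PubChem cytochrome P450 panel assay, CYP1A2 panel member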
T4 sequence (P05177 whole entry): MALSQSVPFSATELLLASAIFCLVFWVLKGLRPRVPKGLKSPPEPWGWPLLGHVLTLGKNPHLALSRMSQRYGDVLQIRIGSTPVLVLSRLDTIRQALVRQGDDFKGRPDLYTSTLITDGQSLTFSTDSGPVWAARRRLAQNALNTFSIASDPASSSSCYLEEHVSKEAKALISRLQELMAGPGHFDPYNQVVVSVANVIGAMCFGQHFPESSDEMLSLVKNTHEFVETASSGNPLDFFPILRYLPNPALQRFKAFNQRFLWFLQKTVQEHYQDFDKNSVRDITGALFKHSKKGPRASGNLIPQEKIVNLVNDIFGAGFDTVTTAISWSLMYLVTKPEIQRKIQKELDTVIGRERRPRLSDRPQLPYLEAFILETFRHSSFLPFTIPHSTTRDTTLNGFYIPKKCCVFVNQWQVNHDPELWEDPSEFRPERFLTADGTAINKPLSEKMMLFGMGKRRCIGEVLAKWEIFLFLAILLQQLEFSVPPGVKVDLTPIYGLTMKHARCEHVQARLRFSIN

With CC/N=C1\S/C(=C\c2cn(C(C)=O)nc2-c2ccccc2)C(=O)N1CC the CC50 (Vero) was 24.8 µM (active).

For CSc1ccccc1NC(=O)CN(C)CC(=O)c1[nH]c(C)c(C(C)=O)c1C, the IC50 [1] was 6.83 µM (active) and the IC50 [2] was 18.9 µM (active).

In the case of Cc1cc(C(=O)N/N=C/c2cc(N=Nc3ccccc3)ccc2O)[nH]n1, the EC50 [3] is reported as 13 µM (active), the EC50 [4] is reported as 2.04 µM (active) and the EC50 (cells [5]) is reported as 11.5 µM (active). For the same compound, the EC50 [6] was 10.7 µM (active), the IC50 [7] was 10.9 µM (active) and the EC50 [8] was 9.08 µM (active). The IC50 [9] was > 50 µM (inactive), the EC50 (cells [10]) was 27.9 µM (active) and the IC50 [11] was 2.22 µM (active). For the same compound, the EC50 (Streptococcus) was 1.92 µM (active) and the AC50 (INS1) was 1.22 µM (active).

With CC1CCCC(NC(=O)CCn2c(=O)oc3ccccc32)C1C (stereo not drawn) the AC50 (Cytochrome P450 2C19) was 4.47 µM (inconclusive) and the AC50 (Cytochrome P450 2C9) was “inconclusive”.

For COc1ccc(NC(C)=O)cc1NC(=O)CN1CCN(C2c3ccccc3-c3ccccc32)CC1, the EC50 [3] was > 120 µM (not active), the EC50 [6] was > 120 µM (not active) and the EC50 [8] was 14.7 µM (active). For the same compound, the CC50 (Vero) was 19.3 µM (active).

With CCn1c(C)nc2cc(S(=O)(=O)C(F)(F)C(F)C(F)(F)F)ccc21 (stereo not drawn) the IC50 [12] was 3.91 µM (active).

In the case of CN(CC(=O)Nc1ccc(N2CCOCC2)cc1)CC(=O)Nc1ccc(N2CCOCC2)cc1, the IC50 [12] is reported as 0.655 µM (not active).

With CCn1cc(C(=O)O)c(=O)c2cc(F)c(N3CCN(C)CC3)cc21 [PEFLOXACIN MESYLATE] the AC50 (Escherichia coli) was 1.83 µM (active).

In the case of Cc1nc(NC(=O)/C=C/c2ccccc2)sc1C(=O)N(C)C, the AC50 (Escherichia coli) is reported as 43.6 µM (active).

In the case of C#CCOc1c(Br)cc(/C=C2/C(=O)ON=C2C)cc1OCC, the IC50 (Genome polyprotein) is reported as 84.7 µM (active).

With COc1ccc(C(=O)N(C)c2c(C)n(C)n(-c3ccccc3)c2=O)cc1OC the IC50 [12] was 18.1 µM (not active).

In the case of Cc1nn(C)cc1CNC(=O)CCC(=O)O, the AC50 (Cytochrome P450 2C9) is reported as “inconclusive”.

In the case of CC(C)(C)C1CCC(OC(=O)C[N+]2(C)CCCC2)CC1 (stereo not drawn), the IC50 [1] is reported as 2.96 µM (active) and the IC50 [2] is reported as 3.36 µM (active).

For COc1ccc(CCNCC(O)COc2c(C)cccc2C)cc1OC (stereo not drawn), the AC50 (Escherichia coli) was > 150 µM (inactive).

With Cn1nc(C(=O)Nc2ccc(-n3cnnn3)cc2)c2ccccc2c1=O the IC50 [13] was 25.7 µM (active).

For CCOc1ccccc1NC(=O)Cn1nnc(C(=O)NCc2ccco2)c1N, the EC50 [3] was 0.216 µM (active), the EC50 (BJ [14]) was 2.66 µM (inconclusive) and the EC50 [6] was 0.134 µM (active). The EC50 [8] was 0.109 µM (active), the EC50 (BJ [15]) was 3.17 µM (active) and the EC50 (BJ [16]) was 1.81 µM (inconclusive). For the same compound, the EC50 [17] was 2.65 µM (active) and the IC50 [18] was > 80 µM (inactive).

For O=[N+]([O-])c1ccc([CH+][N-]NC(=S)N[N-][CH+]c2ccc([N+](=O)[O-])cc2)cc1, the IC50 [13] was 4.17 µM (active).

In the case of CC[n+]1ccc(/C=C/c2c[nH]c3ccccc23)cc1, the EC50 [19] is reported as 0.839 µM (active), the EC50 [20] is reported as > 60 µM (not active) and the IC50 [1] is reported as 5.16 µM (active). For the same compound, the IC50 [2] was 12.3 µM (active) and the AC50 (INS1) was 5.79 µM (active).

In the case of Cc1cc(Cl)ccc1OCCCC(=O)N1CCN(C)CC1, the AC50 (Cytochrome P450 2D6) is reported as 14.1 µM (inconclusive), the AC50 (Cytochrome P450 1A2) is reported as 15.8 µM (inconclusive) and the AC50 (Cytochrome P450 2C9) is reported as “inconclusive”.
